Consider one compound from patent US20220088195A1, “Prevention or mitigation of T-cell bispecific antibody-related adverse effects” (Hoffmann-La Roche Inc., priority 2020, published 2022).

Entries after “also recorded” stand apart in the source; their conditions may differ.

Holding throughout (assay type): cell-based, human
The subject of experiment [1] is IFN-γ, IL-2 and TNF-α release. Nature of the experiment: Cytokine release after second stimulation with HLA-A2 WT-1-TCB in the SKM-1 assay (Luminex). Particulars: 100 nM dasatinib, versus positive control ON/ON. As to the method: FIG. 12. Cytokine release after the second stimulation with HLA-A2 WT-1-TCB with and without dasatinib. Supernatants from the killing assay of FIG. 8 were collected 24 hours after the second stimulation and IFN-γ (A), TNF-α (B) and IL-2 (C) were measured with a multiplex cytokine kit (Luminex technology). n=3 donors.
To assess whether dasatinib can efficiently prevent TCB-mediated target cell killing by activated T cells, we set up an in vitro killing assay with two stimulation steps, mimicking an ON/OFF switch. During the first stimulation, PBMCs were activated on carboxyfluorescein succinimidyl ester (CFSE)-labelled SKM-1 tumors cells with HLA-A2 WT-1-TCB in the absence of dasatinib (ON). During the second stimulation, activated PBMCs together with dead CFSE labelled SKM-1 tumors cells were washed and re-stimulated by HLA-A2 WT-1-TCB on fresh CTV labelled SKM-1 tumor cells in the presence of 100 nM dasatinib (OFF). The use of CFSE and CTV labelled SKM-1 tumors allowed to differentiate tumor cells used for first and second stimulation by flow cytometry (FIG. 8). […] Consistently, T cells were activated and functional before the addition of dasatinib in the system. […]

For a further experiment, the system named is SKM-1 tumor cells. Description: Two-stimulation (ON/OFF) killing assay, PBMCs + CFSE/CTV labelled SKM-1 cells + HLA-A2 WT-1-TCB, FACS. As to the method: FIG. 8. In vitro killing assay set-up and timelines. PBMCs were co-cultured with carboxyfluorescein succinimidyl ester (CFSE) labelled SKM-1 target cells (E:T=5:1) and 10 nM HLA-A2 WT-1-TCB for 20h. Activated PBMCs were washed and restimulated on fresh, CTV labelled SKM-1 target cells (E:T=5:1) and 10 nM HLA-A2 WT-1-TCB in the presence or absence of 100 nM dasatinib.
FIG. 10. SKM-1 target cell viability upon first stimulation with 10 nM HLA-A2 WT-1-TCB in the absence of dasatinib (left) and upon second stimulation with 10 nM HLA-A2 WT-1-TCB in the presence of 100 nM dasatinib (right). Target cell viability was measured by FACS after 44h in the assay of FIG. 8. Dead CFSE labelled SKM-1 cells were gated on positive near infrared (NIR) cells (left side). Dead CTV labelled SKM-1 cells were gated on positive NIR cells (right side).
FIG. 11. HLA-A2 WT-1-TCB dose response for dead CFSE and CTV SKM-1 cells used for first and second stimulation in the presence and absence of dasatinib in the assay of FIG. 8. Mean+/−SEM of 3 donors, two-tailed paired t test (for each concentration), 2 tailed p values: 0.1234 (ns), 0.0332 (*), 0.0021 (**), 0.0002 (***), <0.0001 (****).
To assess whether dasatinib can efficiently prevent TCB-mediated target cell killing by activated T cells, we set up an in vitro killing assay with two stimulation steps, mimicking an ON/OFF switch. […]

The subject of a further experiment is CD4+ and CD8+ T cells. Nature of the experiment: CD19-TCB-induced T cell activation (CD69, CD25) in the SUDLH-8 assay. The note with it: 100 nM dasatinib, 24 hrs; monohydrate. As to the method: FIG. 28. […] The expression of CD69 (A) and CD25 (B) on CD4+ T cells was measured by flow cytometry at 24 hrs in the assay described in FIG. 26. Mean of n=3 donors+SD. One way ANOVA, Friedman test, p-value: 0.1234 (ns), 0.0332 (*), 0.0021 (**), 0.0001 (***), <0.0001 (****).
FIG. 29. […] The expression of CD69 (A) and CD25 (B) on CD8+ T cells was measured by flow cytometry at 24 hrs in the assay described in FIG. 26. Mean of n=3 donors+SD. One way ANOVA, Friedman test, p-value: 0.1234 (ns), 0.0332 (*), 0.0021 (**), 0.0001 (***), <0.0001 (****).
The killing of CTV labelled SUDLH-8 cells was measured by flow cytometry using a Live/Dead Near Infra Red (NIR) dye. […] The expression of CD69 and CD25 were measured on CD4+ (FIG. 28) and CD8+(FIG. 29) T cells by flow cytometry as a readout for T cell activation. […] Lastly, the cytokine levels were analyzed in the supernatants of the assay by Luminex to evaluate the effect of dasatinib on CD19-TCB-induced cytokine release (FIGS. 30 and 31).

Consider `Cc1nc(Nc2ncc(C(=O)Nc3c(C)cccc3Cl)s2)cc(N2CCN(CCO)CC2)n1` [dasatinib, N-(2-chloro-6-methylphenyl)-2-[[6-[4-(2-hydroxyethyl)-1-piperazinyl]-2-methyl-4-pyrimidinyl]amino]-5-thiazole carboxamide monohydrate], for which the “IFN-γ, IL-2 and TNF-α release upon re-stimulation” value in experiment [1] is “fully inhibited”. Moreover, in the experiment on SKM-1 tumor cells (10 nM HLA-A2 WT-1 TCB in the presence of 100 nM dasatinib), the “CTV labelled SKM-1 cells alive upon second stimulation” value came to 87.6%. Besides, the “killing of CTV labelled SKM-1 cells (ON/OFF versus ON/ON)” value in the experiment with SKM-1 tumor cells (100 nM dasatinib upon re-stimulation) is given as “effectively prevented the killing”. For the same compound, the “CD19-TCB-induced CD4+ and CD8+ T cell activation (CD69, CD25)” value with CD4+ and CD8+ T cells was “prevents CD19-TCB-induced CD4+ T cell activation; also recorded: prevents CD19-TCB-induced CD8+ T cell activation; also recorded: prevented CD4+ and CD8+ T cell activation”.
